From PubChem BioAssay AID248 (DTP/NCI, 2004)
“And” between values parts separate entries of the source, which are not always exact repeats. Equal values may be shown once. Toxic doses and inconclusive results are not listed.

System: L1210 leukemia ip in BDF1 mice, survival T/C
Experiment: NCI In Vivo Anticancer Drug Screen. Data for tumor model L1210 Leukemia (intraperitoneal) in B6D2F1 (BDF1) mice
Settings: endpoint: mean survival time, higher = longer survival
Outline: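 Survival endpoint. Drug-treated group vs vehicle group, expressed as T divided by C. Tumor passaged by transplantation.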

[1] = dose: 200.0 mg/kg/injection, schedule: Q01DX001 (ip), vehicle: saline
[2] = dose: 400.0 mg/kg/injection, schedule: Q01DX001 (ip), vehicle: saline
[3] = dose: 100.0 mg/kg/injection, schedule: Q04DX002 (ip), vehicle: saline with Tween-80
[4] = dose: 200.0 mg/kg/injection, schedule: Q04DX002 (ip), vehicle: saline with Tween-80
[5] = dose: 100.0 mg/kg/injection, schedule: Q01DX009 (ip), vehicle: Klucel (hydroxypropylcellulose) (HPC)
[6] = dose: 200.0 mg/kg/injection, schedule: Q01DX009 (ip), vehicle: Klucel (hydroxypropylcellulose) (HPC)
[7] = dose: 400.0 mg/kg/injection, schedule: Q01DX009 (ip), vehicle: Klucel (hydroxypropylcellulose) (HPC)
[8] = dose: 100.0 mg/kg/injection, schedule: Q04DX003 (ip), vehicle: saline
[9] = dose: 200.0 mg/kg/injection, schedule: Q04DX003 (ip), vehicle: saline
[10] = dose: 400.0 mg/kg/injection, schedule: Q04DX003 (ip), vehicle: saline
[11] = dose: 100.0 mg/kg/injection, schedule: Q04DX002 (ip), vehicle: Klucel (hydroxypropylcellulose) (HPC)
[12] = dose: 200.0 mg/kg/injection, schedule: Q04DX002 (ip), vehicle: Klucel (hydroxypropylcellulose) (HPC)
[13] = dose: 100.0 mg/kg/injection, schedule: Q04DX003 (ip), vehicle: saline with Tween-80
[14] = dose: 200.0 mg/kg/injection, schedule: Q04DX003 (ip), vehicle: saline with Tween-80
[15] = dose: 400.0 mg/kg/injection, schedule: Q04DX003 (ip), vehicle: saline with Tween-80
[16] = dose: 400.0 mg/kg/injection, schedule: Q04DX002 (ip), vehicle: Klucel (hydroxypropylcellulose) (HPC)

## O=c1[nH]cccc1CC(O)(c1ccccc1)c1ccccc1
dose: 100.0 mg/kg/injection, schedule: Q01DX001 (ip), vehicle: saline
  T/C: 101 % of control
[1]
  T/C: 103 % of control
[2]
  T/C: 100 % of control

## C=CC1(C)C=C2CCC3C(C)(C(=O)O)CCCC3(C)C2CC1 (configuration not stated)
[3]
  T/C: 106 % of control
[4]
  T/C: 95 % of control

## CCCCCCn1c2ccccc2c2cc3cnccc3c(C)c21
dose: 37.5 mg/kg/injection, schedule: Q04DX003 (ip), vehicle: Klucel (hydroxypropylcellulose) (HPC)
  T/C: 97 % of control
dose: 75.0 mg/kg/injection, schedule: Q04DX003 (ip), vehicle: Klucel (hydroxypropylcellulose) (HPC)
  T/C: 97 % of control
dose: 150.0 mg/kg/injection, schedule: Q04DX003 (ip), vehicle: Klucel (hydroxypropylcellulose) (HPC)
  T/C: 102 % of control
dose: 300.0 mg/kg/injection, schedule: Q04DX003 (ip), vehicle: Klucel (hydroxypropylcellulose) (HPC)
  T/C: 104 % of control

## COc1ccc(NC(=O)Nc2ccc(S(N)(=O)=O)cc2)c(OC)c1
[5]
  T/C: 96 % of control
[6]
  T/C: 94 % of control
[7]
  T/C: 88 % of control

## c1ccc2cc(Nc3ccc(Nc4ccc5ccccc5c4)cc3)ccc2c1
dose: 75.0 mg/kg/injection, schedule: Q01DX009 (ip), vehicle: Klucel (hydroxypropylcellulose) (HPC)
  T/C: 103 % of control
[8]
  T/C: 106 % of control
dose: 150.0 mg/kg/injection, schedule: Q01DX009 (ip), vehicle: Klucel (hydroxypropylcellulose) (HPC)
  T/C: 104 % of control
[9]
  T/C: 97 % of control
dose: 300.0 mg/kg/injection, schedule: Q01DX009 (ip), vehicle: Klucel (hydroxypropylcellulose) (HPC)
  T/C: 110 % of control
[10]
  T/C: 100 % of control

## O=C1NC(=O)C(=Cc2cc(Br)ccc2[N+](=O)[O-])C(=O)N1
dose: 100.0 mg/kg/injection, schedule: Q01DX001 (ip), vehicle: carboxymethylcellulose (CMC)
  T/C: 91 % of control
dose: 200.0 mg/kg/injection, schedule: Q01DX001 (ip), vehicle: carboxymethylcellulose (CMC)
  T/C: 104 % of control
dose: 400.0 mg/kg/injection, schedule: Q01DX001 (ip), vehicle: carboxymethylcellulose (CMC)
  T/C: 91 % of control

## NC(CSCc1ccc(N(CCCl)CCCl)cc1)C(=O)O (configuration not stated)
dose: 2.5 mg/kg/injection, schedule: Q01DX Z (ip), vehicle: carboxymethylcellulose (CMC)
  T/C: 124 % of control
dose: 4.0 mg/kg/injection, schedule: Q01DX Z (ip), vehicle: other
  T/C: 112 % of control
dose: 7.0 mg/kg/injection, schedule: Q01DX009 (ip), vehicle: saline
  T/C: 109 % of control
dose: 7.0 mg/kg/injection, schedule: Q01DX Z (ip), vehicle: saline
  T/C: 111 % of control
dose: 10.0 mg/kg/injection, schedule: Q01DX001 (ip), vehicle: carboxymethylcellulose (CMC)
  T/C: 87 % of control
dose: 10.0 mg/kg/injection, schedule: Q01DX Z (ip), vehicle: carboxymethylcellulose (CMC)
  T/C: 157 % of control
dose: 11.0 mg/kg/injection, schedule: Q01DX009 (ip), vehicle: saline
  T/C: 103 % of control
dose: 11.0 mg/kg/injection, schedule: Q01DX Z (ip), vehicle: saline
  T/C: 118 % of control
dose: 16.0 mg/kg/injection, schedule: Q01DX009 (ip), vehicle: saline
  T/C: 111 % of control
dose: 16.0 mg/kg/injection, schedule: Q01DX Z (ip), vehicle: saline
  T/C: 114 % of control
dose: 20.0 mg/kg/injection, schedule: Q01DX Z (ip), vehicle: carboxymethylcellulose (CMC)
  T/C: 152 % of control and 168 % of control
dose: 24.0 mg/kg/injection, schedule: Q01DX009 (ip), vehicle: saline
  T/C: 103 % of control
dose: 24.0 mg/kg/injection, schedule: Q01DX Z (ip), vehicle: saline
  T/C: 124 % of control
dose: 30.0 mg/kg/injection, schedule: Q01DX Z (ip), vehicle: other
  T/C: 123 % of control
dose: 32.0 mg/kg/injection, schedule: Q01DX009 (ip), vehicle: saline
  T/C: 113 % of control
dose: 40.0 mg/kg/injection, schedule: Q01DX001 (ip), vehicle: carboxymethylcellulose (CMC)
  T/C: 95 % of control
dose: 40.0 mg/kg/injection, schedule: Q01DX Z (ip), vehicle: carboxymethylcellulose (CMC)
  T/C: 100 % of control
dose: 80.0 mg/kg/injection, schedule: Q01DX001 (ip), vehicle: carboxymethylcellulose (CMC)
  T/C: 91 % of control

## CC(C)(CCCl)N(Cc1ccccc1)Cc1ccccc1
dose: 100.0 mg/kg/injection, schedule: Q01DX009 (ip), vehicle: saline
  T/C: 93 % of control
[8]
  T/C: 99 % of control
dose: 200.0 mg/kg/injection, schedule: Q01DX009 (ip), vehicle: saline
  T/C: 90 % of control
[9]
  T/C: 95 % of control
[10]
  T/C: 89 % of control

## NC(=O)N(CCCO)/N=C\c1ccc([N+](=O)[O-])o1
[11]
  T/C: 100 % of control
[12]
  T/C: 96 % of control

## C=CCOP(=O)(N1CC1C)N1CC1C (configuration not stated)
dose: 29.0 mg/kg/injection, schedule: Q01DX015 (ip), vehicle: saline
  T/C: 105 % of control
dose: 44.0 mg/kg/injection, schedule: Q01DX015 (ip), vehicle: saline
  T/C: 120 % of control
dose: 66.0 mg/kg/injection, schedule: Q01DX015 (ip), vehicle: saline
  T/C: 114 % of control
dose: 89.0 mg/kg/injection, schedule: Q01DX001 (ip), vehicle: saline
  T/C: 108 % of control
[1]
  T/C: 152 % of control
dose: 300.0 mg/kg/injection, schedule: Q01DX001 (ip), vehicle: saline
  T/C: 115 % of control
[2]
  T/C: 86 % of control

## O=[N+]([O-])c1ccc2c(c1)/C(=C1/c3cc(Br)ccc3-c3ccc([N+](=O)[O-])cc31)c1cc(Br)ccc1-2
[13]
  T/C: 87 % of control
[14]
  T/C: 97 % of control
[15]
  T/C: 92 % of control

## CN(C(=O)C1(C)CC2C=CC1C2)c1ccccc1 (configuration not stated)
dose: 100.0 mg/kg/injection, schedule: Q01DX001 (ip), vehicle: Klucel (hydroxypropylcellulose) (HPC)
  T/C: 100 % of control
dose: 200.0 mg/kg/injection, schedule: Q01DX001 (ip), vehicle: Klucel (hydroxypropylcellulose) (HPC)
  T/C: 102 % of control
dose: 400.0 mg/kg/injection, schedule: Q01DX001 (ip), vehicle: Klucel (hydroxypropylcellulose) (HPC)
  T/C: 97 % of control

## CSc1ccc(OC(=O)Nc2ccc(C)cc2[N+](=O)[O-])cc1
dose: 50.0 mg/kg/injection, schedule: Q01DX009 (ip), vehicle: Klucel (hydroxypropylcellulose) (HPC)
  T/C: 90 % of control
[5]
  T/C: 90 % of control
dose: 100.0 mg/kg/injection, schedule: Q04DX003 (ip), vehicle: Klucel (hydroxypropylcellulose) (HPC)
  T/C: 97 % of control
[6]
  T/C: 100 % of control
dose: 200.0 mg/kg/injection, schedule: Q04DX003 (ip), vehicle: Klucel (hydroxypropylcellulose) (HPC)
  T/C: 99 % of control
dose: 400.0 mg/kg/injection, schedule: Q04DX003 (ip), vehicle: Klucel (hydroxypropylcellulose) (HPC)
  T/C: 97 % of control

## Nc1nc(N)c2nc(CNc3ccc(C(=O)NC(CCC(=O)O)C(=O)O)nc3)cnc2n1 (configuration not stated)
dose: 0.44 mg/kg/injection, schedule: Q01DX009 (ip), vehicle: Klucel (hydroxypropylcellulose) (HPC)
  T/C: 169 % of control
dose: 0.66 mg/kg/injection, schedule: Q01DX009 (ip), vehicle: Klucel (hydroxypropylcellulose) (HPC)
  T/C: 168 % of control
dose: 75.0 micrograms/kg/injection, schedule: Q01DX009 (ip), vehicle: Klucel (hydroxypropylcellulose) (HPC)
  T/C: 119 % of control
dose: 100.0 micrograms/kg/injection, schedule: Q01DX009 (ip), vehicle: Klucel (hydroxypropylcellulose) (HPC)
  T/C: 150 % of control
dose: 150.0 micrograms/kg/injection, schedule: Q01DX009 (ip), vehicle: Klucel (hydroxypropylcellulose) (HPC)
  T/C: 156 % of control and 160 % of control
dose: 220.0 micrograms/kg/injection, schedule: Q01DX009 (ip), vehicle: Klucel (hydroxypropylcellulose) (HPC)
  T/C: 161 % of control
dose: 600.0 micrograms/kg/injection, schedule: Q01DX009 (ip), vehicle: Klucel (hydroxypropylcellulose) (HPC)
  T/C: 102 % of control

## CN(CC#CCOc1ccc(Cl)cc1Cl)c1ccccc1
[11]
  T/C: 102 % of control
[12]
  T/C: 98 % of control
[16]
  T/C: 91 % of control

## CCCCSP(=S)(SCCCC)c1ccc(Cl)cc1
[3]
  T/C: 90 % of control
[4]
  T/C: 93 % of control
dose: 400.0 mg/kg/injection, schedule: Q04DX002 (ip), vehicle: saline with Tween-80
  T/C: 97 % of control

## NC(=S)Nc1ccncc1
[11]
  T/C: 92 % of control
[12]
  T/C: 106 % of control
[16]
  T/C: 95 % of control

## CCc1c([N+](=O)[O-])oc2ccc(Cl)cc12
[5]
  T/C: 103 % of control
[6]
  T/C: 105 % of control
[7]
  T/C: 107 % of control

## Cc1ccc(N2CCN(c3ccc([N+](=O)[O-])cc3)CC2)cc1Cl
[13]
  T/C: 100 % of control
[14]
  T/C: 100 % of control
[15]
  T/C: 98 % of control
